Experimental findings from patent publication US12065654B2, “Plants having increased tolerance to herbicides” (BASF SE, priority 2014, dated 2024) are described below.

Each structure is given as a SMILES string.

One assay deals with HPPD Seq ID 67 ID10. Briefly: HPPD activity assay. In kind it is biochemical, Zea mays. Particulars: HPPD enzyme Seq ID 67 ID10. The procedure:
(§1) The activity assay for HPPD is based on the analysis of homogentisic acid by reversed phase HPLC.
(§2) The assay mixture can contain 150 mM potassium phosphate buffer pH 7.0, 50 mM L-ascorbic acid, 100 μM Catalase (Sigma-Aldrich), 1 μM FeSO4 and 0.2 units of purified HPPD enzyme in a total volume of 505 μl. 1 unit is defined as the amount of enzyme that is required to produce 1 nmol of HGA per minute at 20° C.
(§3) The reaction is allowed to proceed for 45 min at room temperature. The reaction is stopped by the addition of 50 μl of 4.5 M phosphoric acid. The sample is filtered using a […] pore size PVDF filtration device. 5 μl of the cleared sample is analyzed on an UPLC HSS T3 column (particle size 1.8 μm, dimensions 2, 1×50 mm; Waters) by isocratic elution using 90% 20 mM NaH2PO4 pH 2.2, 10% methanol (v/v).
(§4) HGA is detected electrochemically at 750 mV (mode: DC; polarity: positive) and quantified by integrating peak areas (Empower software; Waters).
(§5) Inhibitors are dissolved in DMSO (dimethylsulfoxide) to a concentration of 0.5 mM. From this stock solution serial five-fold dilutions are prepared in DMSO, which are used in the assay. The respective inhibitor solution accounts for 1% of the assay volume. Thus, final inhibitor concentrations range from 5 μM to 320 pM, respectively. Activities are normalized by setting the uninhibited enzyme activity to 100%. IC50 values are calculated using non-linear regression.
(§6) Using methods which are described in the above examples or well known in the art, purified recombinant wild-type HPPD enzymes are characterized with respect to their kinetic properties and sensitivity towards HPPD inhibiting herbicides. Apparent michaelis constants (Km) and maximal reaction velocities (Vmax) are calculated by non-linear regression with the software GraphPad Prism 5 (GraphPad Software, La Jolla, USA) using a substrate inhibition model. […] Weighted means (by standard error) of Km and IC50 values are calculated from at least three independent experiments. The Cheng-Prusoff equation for competitive inhibition (Cheng, Y. C.; Prusoff, W. H. Biochem Pharmacol 1973, 22, 3099-3108) is used to calculate dissociation constants (Ki).
(§7) Field performance of the HPPD enzyme, which is used as a herbicide tolerance trait may depend not only on its lack of sensitivity towards HPPD inhibiting herbicides but also on its activity. To assess the potential performance of a herbicide tolerance trait a tolerance index (TI) is calculated using the following formula: […]
(§8) Easy comparison and ranking of each trait is enabled by normalizing tolerance indexes on Arabidopsis wild-type HPPD.

In another assay the test system is HPPD Seq ID 69 ID406. Put plainly: HPPD activity assay. In kind it is biochemical, Zea mays. To be noted: HPPD enzyme Seq ID 69 ID406. As to the method: as §1, §2, §3, §4, §5, §6, §7, §8
Assay [1] addresses T1, Hordeum HPPD L320H, P321A (Hordeum vulgare, UniProt O48604, L320H/P321A).
T1 construct: His-tag (N); made in house; host or cells: E. coli BL21 (DE3)
Put plainly: HPPD activity assay, mutant. In kind it is biochemical. Particulars: Hordeum HPPD variant L320H, normalized on wild-type. The procedure:
as §1, §2, §3, §4, §5
(§9) Purified, mutant HPPD enzymes are obtained by the methods described above. Dose response and kinetic measurements are carried out using the described HPPD activity assay. Apparent michaelis constants (Km) and maximal reaction velocities (Vmax) are calculated by non-linear regression with the software GraphPad Prism 5 (GraphPad Software, La Jolla, USA) using a substrate inhibition model. […] Weighted means (by standard error) of K. and IC50 values are calculated from at least three independent experiments. The Cheng-Prusoff equation for competitive inhibition (Cheng, Y. C.; Prusoff, W. H. Biochem Pharmacol 1973, 22, 3099-3108) is used to calculate dissociation constants (Ki).
(§10) Field performance of the optimized HPPD enzyme, which is used as a herbicide tolerance trait may depend not only on its lack of sensitivity towards HPPD inhibiting herbicides but also on its activity. To assess the potential performance of a herbicide tolerance trait a tolerance index (TI) is calculated using the following formula: […]
(§11) Easy comparison and ranking of each trait is enabled by normalizing tolerance indexes on the respective wild-type HPPD.

Another assay deals with T2, Hordeum HPPD L334E (Hordeum vulgare, UniProt O48604, A164G/L334E/R146V/R147D/R148G).
T2 construct: His-tag (N); made in house; host or cells: E. coli BL21 (DE3)
T2 sequence (O48604 whole entry R146V/R147D/R148G/A164G/L334E): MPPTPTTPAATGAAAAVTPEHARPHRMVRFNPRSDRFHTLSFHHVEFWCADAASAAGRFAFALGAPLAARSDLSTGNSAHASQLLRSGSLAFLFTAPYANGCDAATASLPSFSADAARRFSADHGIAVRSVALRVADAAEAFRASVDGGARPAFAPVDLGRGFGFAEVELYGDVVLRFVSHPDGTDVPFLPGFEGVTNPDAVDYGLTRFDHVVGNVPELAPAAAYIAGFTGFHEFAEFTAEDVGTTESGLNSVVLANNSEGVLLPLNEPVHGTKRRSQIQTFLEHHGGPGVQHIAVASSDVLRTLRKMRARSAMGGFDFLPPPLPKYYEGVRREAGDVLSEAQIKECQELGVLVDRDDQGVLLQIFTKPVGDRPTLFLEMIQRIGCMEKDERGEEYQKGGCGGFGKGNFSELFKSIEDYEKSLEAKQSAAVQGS
Put plainly: HPPD activity assay, mutant. In kind it is biochemical. Particulars: Hordeum HPPD variant L334E; normalized on wild-type. The procedure: as §1, §2, §3, §4, §5, §9, §10, §11

In assay [2] the target is T3, Hordeum HPPD L353M, P321R, L320N (Hordeum vulgare, UniProt O48604, L320N/L353M/P321R).
T3 construct: His-tag (N); made in house; host or cells: E. coli BL21 (DE3)
T3 sequence (O48604 whole entry R146V/R147D/R148G/A164G/L320N/P321R/L353M): as the sequence (O48604 whole entry R146V/R147D/R148G/A164G/L334E) above, with L320N, P321R, E334L, L353M counted along it
Briefly: HPPD activity assay, mutant. It counts as biochemical. To be noted: Hordeum HPPD variant L353M, normalized on wild-type. The procedure:
as §1, §2, §3, §4, §5, §9, §10, §11

Assay [3] deals with Arabidopsis plants, transgene none (WT). Briefly: Greenhouse herbicide spray test. Particulars: two weeks after treatment. In kind it is in vivo, Arabidopsis thaliana. From the text:
(§12) For post emergence treatment, the test plants are first grown to a height of 3 to 15 cm, depending on the plant habit, and only then treated with the herbicides. For this purpose, the test plants are either sown directly and grown in the same containers, or they are first grown separately and transplanted into the test containers a few days prior to treatment.
(§13) Herbicide injury scoring is done 2-3 weeks after treatment and is rated on a scale of 0 to 100%, 0% being no injury and 100% being complete death.
(§14) Transgenic Arabidopsis plants were sprayed with a range of doses from 0.78-6.25 g/ha of different HPPD-inhibiting herbicides and injury evaluations were taken two weeks after treatment.

For assay [4], the system named is transgenic Arabidopsis plants (T2) AtHPPD F381I. Put plainly: Greenhouse herbicide spray test. It counts as in vivo, Arabidopsis thaliana. To be noted: two weeks after treatment.
Source text: as §12, §13, §14

The subject of assay [5] is transgenic Arabidopsis plants (T2) AtHPPD M335H, P336A, E363Q. Briefly: Greenhouse herbicide spray test. In kind it is in vivo, Arabidopsis thaliana. Particulars: two weeks after treatment.
Source text: as §12, §13, §14

Assay [6] concerns transgenic Arabidopsis plants (T2) AtHPPD M335Y, P336A, E363Q. Briefly: Greenhouse herbicide spray test. To be noted: two weeks after treatment. It counts as in vivo, Arabidopsis thaliana.
Source text: as §12, §13, §14

Assay [7] has as its target T4, Hordeum HPPD (SEQ ID NO:2) (Hordeum vulgare, UniProt O48604, A164G/R146V/R147D/R148G).
T4 construct: His-tag (N); made in house; host or cells: E. coli BL21 (DE3)
Put plainly: HPPD activity assay. Particulars: HPPD enzyme Hordeum. In kind it is biochemical.

Where [8] appears, read: Table 18, no transgene, 0.78 g/ha.
Where [9] appears, read: Table 18, no transgene, 1.56 g/ha.
The mark [10] stands for this setting: Table 18, no transgene, 3.125 g/ha.
[11] abbreviates: Table 18, no transgene, 6.25 g/ha.
Setting [12] is: Table 19, no transgene, 0.78 g/ha.
The mark [13] stands for this setting: Table 19, no transgene, 1.56 g/ha.
Setting [14] is: Table 19, no transgene, 3.125 g/ha.
Setting [15] is: Table 19, no transgene, 6.25 g/ha.

T4 sequence (O48604 whole entry R146V/R147D/R148G/A164G): as the sequence (O48604 whole entry R146V/R147D/R148G/A164G/L334E) above, with E334L counted along it
T1 sequence (O48604 whole entry R146V/R147D/R148G/A164G/L320H/P321A): as the sequence (O48604 whole entry R146V/R147D/R148G/A164G/L334E) above, with L320H, P321A, E334L counted along it

Take `CS(=O)(=O)c1ccc(C(=O)C2C(=O)CCCC2=O)c([N+](=O)[O-])c1` [Inhibitor 2, 2-(4-methylsulfonyl-2-nitro-benzoyl)cyclohexane-1,3-dione]: the “TI normalized to Arabidopsis HPPD” value came to 22.9 in the assay with HPPD Seq ID 67 ID10, 5.6 in the assay with HPPD Seq ID 69 ID406 and 0.9 in assay [7]. Besides, the “Normalized tolerance index (TI)” value worked out at 3.5 in assay [1], 4 on Hordeum HPPD L334E and 0.4 in assay [2]. Besides, the Injury evaluation in assay [3] (setting [8]) worked out at 78%; in assay [3] (setting [9]), 95%; in assay [3] (setting [10]) it was 100%; in [3] (setting [11]) it was 99%; in [3] (setting [12]) it was 93%; in assay [3] (setting [13]), 99%. Also, the Injury evaluation in [3] (setting [14]) amounted to 100%; in assay [3] (setting [15]) it was 100%; in assay [4] (1.56 g/ha), 20%; in [4] (3.125 g/ha), 25%; in [4] (6.25 g/ha) it was 78%; in [5] (0.78 g/ha), 3%. For the same compound, the Injury evaluation in assay [5] (1.56 g/ha) amounted to 0%; in assay [5] (3.125 g/ha) it was 13%; in [5] (6.25 g/ha), 12%; in assay [6] (0.78 g/ha) it was 5%; in assay [6] (1.56 g/ha) it was 12%; in assay [6] (3.125 g/ha), 21%. In assay [6] (6.25 g/ha), the Injury evaluation is on record as 38%.
For the compound `Cc1c(C(=O)c2cnn(C)c2O)ccc(S(C)(=O)=O)c1C1=NOCC1` [Inhibitor 1, [3-(4,5-dihydroisoxazol-3-yl)-2-methyl-4-methylsulfonyl-phenyl]-(5-hydroxy-1-methyl-pyrazol-4-yl)methanone], the results for the “TI normalized to Arabidopsis HPPD” value (with HPPD Seq ID 67 ID10; with HPPD Seq ID 69 ID406; in assay [7]) were 120.8, 15 and 3.7, respectively. Also, the “Normalized tolerance index (TI)” value in assay [1] is on record as 5.1; at Hordeum HPPD L334E it was 3.6; in assay [2], 2.6. For the same compound, the Injury evaluation is on record as 89% in assay [3] (setting [8]); 99% in assay [3] (setting [9]); 99% in assay [3] (setting [10]); 100% in assay [3] (setting [11]); 85% in [3] (setting [12]); 88% in assay [3] (setting [13]). Also, the Injury evaluation was determined as 96% in assay [3] (setting [14]); 99% in [3] (setting [15]); 43% in [4] (1.56 g/ha); 55% in assay [4] (3.125 g/ha); 70% in assay [4] (6.25 g/ha); 0% in [5] (0.78 g/ha). The Injury evaluation in [5] (1.56 g/ha) is reported as 10%; in [5] (3.125 g/ha) it was 15%; in assay [5] (6.25 g/ha), 15%; in [6] (0.78 g/ha) it was 12%; in assay [6] (1.56 g/ha), 21%; in assay [6] (3.125 g/ha) it was 42%. In addition, in assay [6] (6.25 g/ha), the Injury evaluation came out at 68%.
With `CS(=O)(=O)c1ccc(C(=O)C2C(=O)CCCC2=O)c(Cl)c1COCC(F)(F)F` [Inhibitor 4, 2-[2-chloro-4-methylsulfonyl-3-(2,2,2-trifluoroethoxymethyl)benzoyl]cyclohexane-1,3-dione], the “TI normalized to Arabidopsis HPPD” value in the assay with HPPD Seq ID 67 ID10 was 26; with HPPD Seq ID 69 ID406, 5.5; in assay [7], 0.1. Also, the “Normalized tolerance index (TI)” value in [1] was 4.3; on Hordeum HPPD L334E it was 2.1; in assay [2], 2.2.
`COCCOCc1nc(C(F)(F)F)ccc1C(=O)C1=C(O)C2CCC(C2)C1=O` (centres unmarked) [Inhibitor 3, 2-hydroxy-3-[2-(2-methoxyethoxymethyl)-6-(trifluoromethyl)pyridine-3-carbonyl]bicyclo[3.2.1]oct-2-en-4-one]: the “TI normalized to Arabidopsis HPPD” value with HPPD Seq ID 67 ID10 is 20.1; in the assay with HPPD Seq ID 69 ID406, 9.9; in [7], 0.2. In addition, the “Normalized tolerance index (TI)” value in [1] stood at 2.5; at Hordeum HPPD L334E, 1.2; in assay [2] it was 0.6.
